Results published in ChEMBL document CHEMBL1240532, “Spiroindolones, a potent compound class for the treatment of malaria” (Science, 2010).
pIC50: −log10 of the molar value. Active and inactive are the calls of the source. The calls are words filed in the database; no cut-off is given here.

Tests used:
Plasmodium berghei [1] = assay: Antimalarial activity against Plasmodium berghei GFP ANKA infected in NMRI mice (Mus musculus) assessed as survival at 10 mg/kg, perorally administered through 7% Tween80/3% Ethanol formulation 24 hrs post infection for 3 days measured 96 hrs post infection; format: functional; conditions: route oral
Plasmodium falciparum [2] = assay: Antimalarial activity against Plasmodium falciparum 3D7 assessed as parasite growth inhibition at 8 nM after 6 hrs by [3H]hypoxanthin incorporation assay; format: functional
Plasmodium berghei [3] = assay: Antimalarial activity against Plasmodium berghei GFP ANKA infected in NMRI mice (Mus musculus) assessed as reduction in parasitaemia at 10 mg/kg, perorally administered as single dose 24 hrs post infection for 1 day measured 72 hrs post infection; format: functional; design: scale not given: the % may be the effect or the level left; conditions: route oral
Plasmodium berghei [4] = assay: Antimalarial activity against Plasmodium berghei GFP ANKA infected in NMRI mice (Mus musculus) assessed as reduction in parasitaemia at 30 mg/kg, perorally administered as single dose 24 hrs post infection for 1 day measured 72 hrs post infection; format: functional; design: scale not given: the % may be the effect or the level left; conditions: route oral
Plasmodium berghei [5] = assay: Antimalarial activity against Plasmodium berghei GFP ANKA infected in NMRI mice (Mus musculus) assessed as survival at 10 mg/kg, perorally administered as single dose as single dose 24 hrs post infection for 1 day measured 72 hrs post infection; format: functional; conditions: route oral
Plasmodium berghei [6] = assay: Antimalarial activity against Plasmodium berghei GFP ANKA infected in NMRI mice (Mus musculus) assessed as survival at 30 mg/kg, perorally administered as single dose 24 hrs post infection for 1 day measured 72 hrs post infection; format: functional; conditions: route oral
Plasmodium berghei [7] = assay: Antimalarial activity against Plasmodium berghei GFP ANKA infected in NMRI mice (Mus musculus) assessed as survival at 100 mg/kg, perorally administered as single dose 24 hrs post infection for 1 day measured 72 hrs post infection; format: functional; conditions: route oral
Plasmodium berghei [8] = assay: Antimalarial activity against Plasmodium berghei GFP ANKA infected in NMRI mice (Mus musculus) assessed as reduction in parasitaemia at 10 mg/kg, perorally administered through 7% Tween80/3% Ethanol formulation 24 hrs post infection for 3 days measured 96 hrs post infection; format: functional; design: scale not given: the % may be the effect or the level left; conditions: route oral
Plasmodium falciparum [9] = assay: Antimalarial activity against Plasmodium falciparum Dd2 after 72 hrs by SYBR green based fluorescence assay; format: functional, organism-based; conditions: Dd2, 72 h
Plasmodium falciparum [10] = assay: Antimalarial activity against NITD609-resistant Plasmodium falciparum Dd2 Clone1 bearing P-type ATPase4 I398F and P990R mutations after 72 hrs by SYBR green based fluorescence assay; format: functional, organism-based; conditions: Dd2, 72 h
Plasmodium falciparum [11] = assay: Antimalarial activity against NITD609-resistant Plasmodium falciparum Dd2 Clone2 bearing P-type ATPase4 T418N and P990R mutations after 72 hrs by SYBR green based fluorescence assay; format: functional, organism-based; conditions: Dd2, 72 h
Plasmodium falciparum [12] = format: functional, organism-based; conditions: Dd2, 72 h
Plasmodium falciparum [13] = assay: Antimalarial activity against Plasmodium falciparum assessed as […] by SYBR green based fluorescence assay; format: functional, organism-based; conditions: for pIC50: Plasmodium falciparum
Plasmodium falciparum [14] = assay: Inhibition of protein synthesis in NITD609-resistant Plasmodium falciparum Dd2 Clone1 within 1 hrs by [35S]Met/Cys incorporation assay; format: functional
Plasmodium falciparum [15] = assay: Inhibition of protein synthesis in NITD609-resistant Plasmodium falciparum Dd2 Clone3 within 1 hrs by [35S]Met/Cys incorporation assay; format: functional
Plasmodium falciparum [16] = assay: microbe, parasite or virus in culture; conditions: Dd2, 72 h
Description: Antimalarial activity against Plasmodium falciparum Dd2 containing attB site inserted in parasite genome and expressing parental ATP4 after 72 hrs by SYBR green based fluorescence assay

Plasmodium falciparum [17] = assay: microbe, parasite or virus in culture; conditions: Dd2, 72 h; remark: listed apart in the source
Description: Antimalarial activity against Plasmodium falciparum Dd2 containing attB site inserted in parasite genome and using EF1-alpha promoter driven expressing wild type ATP4 after 72 hrs by SYBR green based fluorescence assay

Plasmodium falciparum [18] = assay: microbe, parasite or virus in culture; conditions: Dd2, 72 h; remark: listed apart in the source
Description: Antimalarial activity against Plasmodium falciparum Dd2 containing attB site inserted in parasite genome and using EF1-alpha promoter driven expressing ATP4 D1247Y mutant after 72 hrs by SYBR green based fluorescence assay

Plasmodium falciparum [19] = assay: microbe, parasite or virus in culture; conditions: Dd2, 72 h; remark: listed apart in the source
Description: Antimalarial activity against Plasmodium falciparum Dd2 containing attB site inserted in parasite genome and using EF1-alpha promoter driven expressing ATP4 I398F/P990R mutant after 72 hrs by SYBR green based fluorescence assay

Plasmodium falciparum [20] = assay: microbe, parasite or virus in culture; conditions: Dd2, 72 h; remark: listed apart in the source
Description: Antimalarial activity against Plasmodium falciparum Dd2 containing attB site inserted in parasite genome and using CAM promoter driven expressing ATP4 D1247Y mutant after 72 hrs by SYBR green based fluorescence assay

Plasmodium falciparum [21] = assay: microbe, parasite or virus in culture; conditions: Dd2, 72 h; remark: listed apart in the source
Description: Antimalarial activity against Plasmodium falciparum Dd2 containing attB site inserted in parasite genome and using CAM promoter driven expressing ATP4 I398F/P990R mutant after 72 hrs by SYBR green based fluorescence assay

Plasmodium berghei [22] = assay: Antimalarial activity against Plasmodium berghei GFP ANKA infected in NMRI mice (Mus musculus) assessed as reduction in parasitaemia at 30 mg/kg, perorally administered through 7% Tween80/3% Ethanol formulation 24 hrs post infection for 3 days measured 96 hrs post infection; format: functional; design: scale not given: the % may be the effect or the level left; conditions: route oral
Plasmodium berghei [23] = assay: Antimalarial activity against Plasmodium berghei GFP ANKA infected in NMRI mice (Mus musculus) assessed as survival at 30 mg/kg, perorally administered through 7% Tween80/3% Ethanol formulation 24 hrs post infection for 3 days measured 96 hrs post infection; format: functional; conditions: route oral
Plasmodium berghei [24] = assay: Antimalarial activity against Plasmodium berghei GFP ANKA infected in NMRI mice (Mus musculus) assessed as reduction in parasitaemia dosed in ETPGS formulation 1 day post infection measured 72 hrs post infection; format: functional
Plasmodium berghei [25] = assay: Antimalarial activity against Plasmodium berghei GFP ANKA infected in NMRI mice (Mus musculus) assessed as reduction in parasitaemia dosed in 7% Tween80/3% ethanol formulation 1 day post infection measured 72 hrs post infection; format: functional
Plasmodium berghei [26] = assay: Antimalarial activity against Plasmodium berghei GFP ANKA infected in NMRI mice (Mus musculus) assessed as reduction in parasitaemia at 100 mg/kg, perorally administered as single dose 24 hrs post infection for 1 day measured 72 hrs post infection; format: functional; design: scale not given: the % may be the effect or the level left; conditions: route oral

CO[C@H]1O[C@@H]2O[C@@]3(C)CC[C@H]4[C@H](C)CC[C@@H]([C@H]1C)[C@@]24OO3
Survival (Plasmodium berghei [1]): 13.2 days
inhibition at 0.008 µM (Plasmodium falciparum [2]): > 90%
Activity (Plasmodium berghei [3]): 81%
Activity (Plasmodium berghei [4]): 97%
mean survival time at 10 mg/kg (Plasmodium berghei [5]): 6.2 days
Survival (Plasmodium berghei [6]): 6.9 days
Survival (Plasmodium berghei [7]): >7.6 days
Activity (Plasmodium berghei [8]): 99.7%

COc1ccc(C[C@H]2NC[C@H](O)[C@H]2OC(C)=O)cc1 [ANISOMYCIN]
pIC50 (Plasmodium falciparum [9]): 8.04
pIC50 (Plasmodium falciparum [10]): 8.24
pIC50 (Plasmodium falciparum [11]): 8.04
pIC50 (Plasmodium falciparum [12]; read-out: IC50): 8.19
pIC50 (Plasmodium falciparum [13]): 7.60
inhibition (Plasmodium falciparum [14]): Active
inhibition (Plasmodium falciparum [15]): Active

C[C@@H]1CC[C@H]2[C@@H](C)C(=O)O[C@@H]3O[C@@]4(C)CC[C@@H]1[C@]32OO4 [ARTEMISININ]
pIC50 (Plasmodium falciparum [10]): 7.89
pIC50 (Plasmodium falciparum [11]): 7.74
pIC50 (Plasmodium falciparum [12]; read-out: IC50): 7.80
inhibition (INH) (Plasmodium falciparum [13]): <25%
pIC50 (Plasmodium falciparum [13]): 7.82
pIC50 (Plasmodium falciparum [16]): 7.81
pIC50 (Plasmodium falciparum [17]): 7.77
pIC50 (Plasmodium falciparum [18]): 7.70
pIC50 (Plasmodium falciparum [19]): 7.76
pIC50 (Plasmodium falciparum [20]): 7.79
pIC50 (Plasmodium falciparum [21]): 7.75

C[C@H]1[C@H](OC(=O)CCC(=O)O)O[C@@H]2O[C@@]3(C)CC[C@H]4[C@H](C)CC[C@@H]1[C@@]24OO3 [ARTESUNATE]
Survival (Plasmodium berghei [1]): 6.5 days
Activity (Plasmodium berghei [22]): 98%
Survival (Plasmodium berghei [23]): 7.2 days
Activity (Plasmodium berghei [3]): 70%
Activity (Plasmodium berghei [4]): 89%
mean survival time at 10 mg/kg (Plasmodium berghei [5]): 7.3 days
Survival (Plasmodium berghei [7]): 6.7 days
ED50 (Plasmodium berghei [24]): 6.2 mg/kg
ED99 (Plasmodium berghei [25]): 135 mg/kg
Activity (Plasmodium berghei [8]): 92%

O=C1C(O)=C([C@H]2CC[C@H](c3ccc(Cl)cc3)CC2)C(=O)c2ccccc21 [ATOVAQUONE]
pIC50 (Plasmodium falciparum [9]): 9.10
pIC50 (Plasmodium falciparum [10]): 9.22
pIC50 (Plasmodium falciparum [11]): 9.10
pIC50 (Plasmodium falciparum [12]; read-out: IC50): 9.22

CCN(CC)CCCC(C)Nc1ccnc2cc(Cl)ccc12 (configuration not stated) [CHLOROQUINE]
Survival (Plasmodium berghei [1]): 15.4 days
Activity (Plasmodium berghei [22]): 98.6%
Survival (Plasmodium berghei [23]): 18.8 days
Activity (Plasmodium berghei [26]): >99.9%
mean survival time at 10 mg/kg (Plasmodium berghei [5]): 8 days
Survival (Plasmodium berghei [6]): 8.7 days
Survival (Plasmodium berghei [7]): 12 days
ED50 (Plasmodium berghei [24]): 1.9 mg/kg
ED99 (Plasmodium berghei [25]): 8.4 mg/kg

C/C=C/[C@H]1O[C@@](O)([C@@H](C)[C@H](O)[C@H](C)[C@H]2OC(=O)/C(OC)=C/C(C)=C/[C@@H](C)[C@@H](O)[C@@H](CC)[C@@H](O)[C@H](C)C/C(C)=C/C=C/[C@@H]2OC)C[C@@H](O[C@H]2C[C@@H](O)[C@H](OC(N)=O)[C@@H](C)O2)[C@@H]1C [CONCANAMYCIN A]
pIC50 (Plasmodium falciparum [9]): 8.35
pIC50 (Plasmodium falciparum [10]): 8.15
pIC50 (Plasmodium falciparum [11]): 8.10
pIC50 (Plasmodium falciparum [12]; read-out: IC50): 8.15

C[C@@H]1C[C@@H]([C@H](O)CC2CC(=O)NC(=O)C2)C(=O)[C@@H](C)C1 [CYCLOHEXIMIDE]
pIC50 (Plasmodium falciparum [9]): 6.49
pIC50 (Plasmodium falciparum [10]): 6.54
pIC50 (Plasmodium falciparum [11]): 6.51
pIC50 (Plasmodium falciparum [12]): 6.52
pIC50 (Plasmodium falciparum [13]): 6.70
inhibition (Plasmodium falciparum [14]): Active
inhibition (Plasmodium falciparum [15]): Active

CC(=O)C1=C(O)[C@@H]2[C@H]3c4c[nH]c5cccc(c45)C[C@H]3C(C)(C)N2C1=O [CYCLOPIAZONIC ACID]
pIC50 (Plasmodium falciparum [9]): 5.47
pIC50 (Plasmodium falciparum [10]): 5.46
pIC50 (Plasmodium falciparum [11]): 5.38
pIC50 (Plasmodium falciparum [12]; read-out: IC50): 5.49

OC(c1cc(C(F)(F)F)nc2c(C(F)(F)F)cccc12)C1CCCCN1 (configuration not stated) [MEFLOQUINE]
Survival (Plasmodium berghei [1]): 13.8 days
Activity (Plasmodium berghei [22]): 99.9%
Survival (Plasmodium berghei [23]): 14 days
Activity (Plasmodium berghei [3]): 95%
Activity (Plasmodium berghei [4]): 98%
Activity (Plasmodium berghei [26]): 89%
mean survival time at 10 mg/kg (Plasmodium berghei [5]): 15.2 days
Survival (Plasmodium berghei [6]): 18.2 days
Survival (Plasmodium berghei [7]): 28 days
pIC50 (Plasmodium falciparum [10]): 8.17
pIC50 (Plasmodium falciparum [11]): 8.15
pIC50 (Plasmodium falciparum [12]; read-out: IC50): 8.10
inhibition (INH) (Plasmodium falciparum [13]): <25%
ED50 (Plasmodium berghei [24]): 4.2 mg/kg
ED99 (Plasmodium berghei [25]): 8.6 mg/kg
Activity (Plasmodium berghei [8]): 99.9%
pIC50 (Plasmodium falciparum [18]): 7.90
pIC50 (Plasmodium falciparum [19]): 7.85
pIC50 (Plasmodium falciparum [20]): 7.96
pIC50 (Plasmodium falciparum [21]): 7.89

CCc1nc(N)nc(N)c1-c1ccc(Cl)cc1 [PYRIMETHAMINE]
pIC50 (Plasmodium falciparum [9]): < 4.70
pIC50 (Plasmodium falciparum [10]): < 4.70
pIC50 (Plasmodium falciparum [11]): < 4.70
pIC50 (Plasmodium falciparum [12]; read-out: IC50): < 4.70

C/C=C(/C)C(=O)O[C@H]1C(C)=C2[C@H]([C@@H]1OC(=O)CCCCCCC)[C@@](C)(OC(C)=O)C[C@H](OC(=O)CCC)[C@@]1(O)[C@H]2OC(=O)[C@@]1(C)O [THAPSIGARGIN]
pIC50 (Plasmodium falciparum [9]): 6.04
pIC50 (Plasmodium falciparum [10]): 6.09
pIC50 (Plasmodium falciparum [11]): 5.96
pIC50 (Plasmodium falciparum [12]; read-out: IC50): 5.98
